From US8952024B2, “Herbicidal pyrimidone derivatives” (E I du Pont de Nemours and Company, priority 2009, dated 2015)

Columns and labels:
Assay type in all cases: in vivo
[1] = tested on: corn (Zea mays); assay: Test B pre-/postemergence plant response; details: for Corn plant response rating (0 to 100 scale): 62 g ai/ha, 0 is no effect
Procedure, shortened: (§1)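 Ratings reflect visual comparison with untreated controls 13 to 15 days after application, from 0 (no effect) to 100 (complete control). Application was preemergence to seeded loam/sand soil or postemergence to 1- to 4-leaf plants, with compound in a non-phytotoxic, surfactant-containing solvent.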

[2] = tested on: morningglory (Ipomoea coccinea); assay: Test B pre-/postemergence plant response; details: for Morningglory plant response rating (0 to 100 scale): 62 g ai/ha, 0 is no effect
Procedure, shortened: as §1

[3] = tested on: pigweed (Amaranthus retroflexus); assay: Test B pre-/postemergence plant response; details: for Pigweed plant response rating (0 to 100 scale): 62 g ai/ha, 0 is no effect
Procedure, shortened: as §1

[4] = tested on: Italian ryegrass (Lolium multiflorum); assay: Test B pre-/postemergence plant response; details: for Ryegrass, Italian plant response rating (0 to 100 scale): 62 g ai/ha, 0 is no effect
Procedure, shortened: as §1

[5] = tested on: giant foxtail (Setaria faberii); assay: Test B pre-/postemergence plant response; details: for Foxtail, Giant plant response rating (0 to 100 scale): 62 g ai/ha, 0 is no effect
Procedure, shortened: as §1

[6] = tested on: cocklebur (Xanthium strumarium); assay: Test B pre-/postemergence plant response; details: for Cocklebur plant response rating (0 to 100 scale): 62 g ai/ha, 0 is no effect
Procedure, shortened: as §1

[7] = tested on: downy bromegrass (Bromus tectorum); assay: Test B pre-/postemergence plant response; details: for Bromegrass, Downy plant response rating (0 to 100 scale): 62 g ai/ha, 0 is no effect
Procedure, shortened: as §1

[8] = tested on: wild oat (Avena fatua); assay: Test B pre-/postemergence plant response; details: for Oat, Wild plant response rating (0 to 100 scale): 62 g ai/ha, 0 is no effect
Procedure, shortened: as §1

[9] = tested on: blackgrass (Alopecurus myosuroides); assay: Test B pre-/postemergence plant response; details: for Blackgrass plant response rating (0 to 100 scale): 62 g ai/ha, 0 is no effect
Procedure, shortened: as §1

[10] = tested on: Surinam grass (Brachiaria decumbens); assay: Test B pre-/postemergence plant response
Procedure, shortened: as §1

[11] = tested on: windgrass (Apera spica-venti); assay: Test B postemergence plant response; details: for Windgrass plant response rating (0 to 100 scale): 62 g ai/ha, 0 is no effect
Procedure, shortened: (§2)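 Plants grown in peat/vermiculite medium were sprayed postemergence at 2–18 cm height (1- to 4-leaf stage). After 13–15 days in the greenhouse, response was rated visually against untreated controls on a 0–100 scale (0 no effect, 100 complete control).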

[12] = tested on: canarygrass (Phalaris minor); assay: Test B postemergence plant response; details: for Canarygrass plant response rating (0 to 100 scale): 62 g ai/ha, 0 is no effect
Procedure, shortened: as §2

[13] = tested on: chickweed (Stellaria media); assay: Test B postemergence plant response; details: for Chickweed plant response rating (0 to 100 scale): 62 g ai/ha, 0 is no effect
Procedure, shortened: as §2

[14] = 31 g ai/ha, postemergence, scale 0 to 100, 0 is no effect, 100 is complete control
[15] = postemergence, 100 is complete control, 13 to 15 days
[16] = Postemergence, 125 g ai/ha, visual rating after 13 to 15 days, scale 0 (no effect) to 100 (complete control)
[17] = Postemergence, 250 g ai/ha, scale 0 to 100 (0 no effect, 100 complete control)
[18] = Postemergence, 31 g ai/ha, 0 to 100 scale (0 no effect, 100 complete control)
[19] = Postemergence, 125 g ai/ha, scale 0 to 100 (0 no effect, 100 complete control)
[20] = Postemergence, 250 g ai/ha, scale 0 to 100 (0 no effect, 100 complete control), 13 to 15 days

COCCn1c(-c2ccccc2)ncc(C(=O)C2=C(O)CCCC2=O)c1=O [Compound 85]
Plant response rating, Corn [1, 14]: 50
Corn plant response rating (0 to 100 scale) [1, 15]: 70
Plant response rating, Corn [1, 16]: 85
Plant response rating, Corn [1, 17]: 85
Plant response rating, Morningglory [2, 14]: 95
Morningglory plant response rating (0 to 100 scale) [2, 15]: 100
Plant response rating, Morningglory [2, 17]: 100
Plant response rating, Pigweed [3, 14]: 100
Pigweed plant response rating (0 to 100 scale) [3, 15]: 100
Plant response rating, Pigweed [3, 17]: 100
Plant response rating, Ryegrass, Italian [4, 14]: 0
Ryegrass, Italian plant response rating (0 to 100 scale) [4, 15]: 10
Plant response rating, Ryegrass, Italian [4, 17]: 45
Plant response rating, Foxtail, Giant [5, 14]: 75
Foxtail, Giant plant response rating (0 to 100 scale) [5, 15]: 80
Plant response rating, Foxtail, Giant [5, 17]: 98
Plant response rating, Cocklebur [6, 14]: 95
Cocklebur plant response rating (0 to 100 scale) [6, 15]: 95
Plant response rating, Cocklebur [6, 16]: 98
Plant response rating, Cocklebur [6, 17]: 98
Plant response rating, Bromegrass, Downy [7, 14]: 0
Bromegrass, Downy plant response rating (0 to 100 scale) [7, 15]: 5
Plant response rating, Bromegrass, Downy [7, 16]: 25
Plant response rating, Bromegrass, Downy [7, 17]: 30
Plant response rating, Oat, Wild [8, 14]: 5
Oat, Wild plant response rating (0 to 100 scale) [8, 15]: 25
Plant response rating, Oat, Wild [8, 17]: 60
Plant response rating, Blackgrass [9, 14]: 5
Blackgrass plant response rating (0 to 100 scale) [9, 15]: 35
Plant response rating, Blackgrass [9, 16]: 35
Plant response rating, Blackgrass [9, 17]: 50
Plant response rating, Surinam Grass [10, 14]: 75
Surinam Grass plant response rating (0 to 100 scale) ([10]; 62 g ai/ha, postemergence, 0 is no effect, 100 is complete control, 13 to 15 days): 85
Plant response rating, Surinam Grass [10, 17]: 85
Plant response rating, Windgrass [11, 14]: 40
Windgrass plant response rating (0 to 100 scale) [11, 15]: 70
Plant response rating, Windgrass [11, 17]: 95
Plant response rating, Canarygrass [12, 14]: 35
Canarygrass plant response rating (0 to 100 scale) [12, 15]: 40
Plant response rating, Canarygrass [12, 16]: 55
Plant response rating, Canarygrass [12, 17]: 60
Plant response rating, Chickweed [13, 14]: 85
Chickweed plant response rating (0 to 100 scale) [13, 15]: 95
Plant response rating, Chickweed [13, 16]: 95
Plant response rating, Chickweed [13, 17]: 98

CCCn1c(-c2cc(C)cc(C)c2)ncc(C(=O)C2=C(O)CCCC2=O)c1=O [Compound 156]
Plant response rating, Corn [1, 18]: 10
Plant response rating, Corn [1, 19]: 45
Plant response rating, Corn [1, 20]: 60
Plant response rating, Morningglory [2, 18]: 80
Plant response rating, Morningglory [2, 19]: 100
Plant response rating, Morningglory [2, 20]: 100
Plant response rating, Pigweed [3, 18]: 60
Plant response rating, Pigweed [3, 19]: 98
Plant response rating, Pigweed [3, 20]: 100
Plant response rating, Ryegrass, Italian [4, 18]: 0
Plant response rating, Ryegrass, Italian [4, 19]: 20
Plant response rating, Ryegrass, Italian [4, 20]: 40
Plant response rating, Foxtail, Giant [5, 18]: 75
Plant response rating, Foxtail, Giant [5, 19]: 85
Plant response rating, Foxtail, Giant [5, 20]: 90
Plant response rating, Cocklebur [6, 18]: 20
Plant response rating, Cocklebur [6, 19]: 75
Plant response rating, Cocklebur [6, 20]: 98
Bromegrass, Downy plant response rating (0 to 100 scale) [7, 15]: 10
Plant response rating, Bromegrass, Downy [7, 18]: 10
Plant response rating, Bromegrass, Downy [7, 19]: 35
Plant response rating, Bromegrass, Downy [7, 20]: 40
Plant response rating, Oat, Wild [8, 18]: 5
Plant response rating, Oat, Wild [8, 19]: 35
Plant response rating, Oat, Wild [8, 20]: 50
Blackgrass plant response rating (0 to 100 scale) [9, 15]: 5
Plant response rating, Blackgrass [9, 18]: 5
Plant response rating, Blackgrass [9, 19]: 35
Plant response rating, Blackgrass [9, 20]: 50
Plant response rating, Surinam Grass [10, 18]: 40
Plant response rating, Surinam Grass [10, 19]: 60
Plant response rating, Surinam Grass [10, 20]: 70
Plant response rating, Windgrass [11, 18]: 40
Plant response rating, Windgrass [11, 19]: 55
Plant response rating, Windgrass [11, 20]: 60
Plant response rating, Canarygrass [12, 18]: 15
Plant response rating, Canarygrass [12, 19]: 40
Plant response rating, Canarygrass [12, 20]: 60
Plant response rating, Chickweed [13, 18]: 80
Plant response rating, Chickweed [13, 19]: 100
Plant response rating, Chickweed [13, 20]: 100

Cc1ccc(Cl)cc1-n1c(-c2cccc(F)c2)ncc(C(=O)C2=C(O)CCCC2=O)c1=O [Compound 184]
Plant response rating, Corn [1, 18]: 80
Plant response rating, Corn [1, 19]: 85
Plant response rating, Corn [1, 20]: 98
Plant response rating, Morningglory [2, 18]: 40
Plant response rating, Morningglory [2, 19]: 100
Plant response rating, Morningglory [2, 20]: 100
Plant response rating, Pigweed [3, 18]: 70
Plant response rating, Pigweed [3, 19]: 75
Plant response rating, Pigweed [3, 20]: 100
Plant response rating, Ryegrass, Italian [4, 18]: 20
Plant response rating, Ryegrass, Italian [4, 19]: 45
Plant response rating, Ryegrass, Italian [4, 20]: 60
Plant response rating, Foxtail, Giant [5, 18]: 98
Plant response rating, Foxtail, Giant [5, 19]: 100
Plant response rating, Foxtail, Giant [5, 20]: 100
Plant response rating, Cocklebur [6, 18]: 100
Plant response rating, Cocklebur [6, 19]: 100
Plant response rating, Cocklebur [6, 20]: 100
Bromegrass, Downy plant response rating (0 to 100 scale) [7, 15]: 50
Plant response rating, Bromegrass, Downy [7, 18]: 40
Plant response rating, Bromegrass, Downy [7, 19]: 50
Plant response rating, Bromegrass, Downy [7, 20]: 60
Plant response rating, Oat, Wild [8, 18]: 40
Plant response rating, Oat, Wild [8, 19]: 80
Plant response rating, Oat, Wild [8, 20]: 98
Blackgrass plant response rating (0 to 100 scale) [9, 15]: 35
Plant response rating, Blackgrass [9, 18]: 30
Plant response rating, Blackgrass [9, 19]: 40
Plant response rating, Blackgrass [9, 20]: 50
Plant response rating, Surinam Grass [10, 18]: 80
Plant response rating, Surinam Grass [10, 19]: 100
Plant response rating, Surinam Grass [10, 20]: 100
Plant response rating, Windgrass [11, 18]: 60
Plant response rating, Windgrass [11, 19]: 90
Plant response rating, Windgrass [11, 20]: 100
Plant response rating, Canarygrass [12, 18]: 45
Plant response rating, Canarygrass [12, 19]: 80
Plant response rating, Canarygrass [12, 20]: 95
Plant response rating, Chickweed [13, 18]: 100
Plant response rating, Chickweed [13, 19]: 100
Plant response rating, Chickweed [13, 20]: 100

COCCCn1c(-c2cccc(C)c2)ncc(C(=O)C2=C(O)CCCC2=O)c1=O [Compound 118, 5-[(2-hydroxy-6-oxo-1-cyclohexane-1-yl)carbonyl]-3-(3-methoxypropyl)-2-(3-methylphenyl)-4(3H)-pyrimidinone]
Plant response rating, Corn [1, 14]: 0
Corn plant response rating (0 to 100 scale) [1, 15]: 0
Plant response rating, Corn [1, 19]: 20
Plant response rating, Corn [1, 17]: 25
Plant response rating, Morningglory [2, 14]: 10
Morningglory plant response rating (0 to 100 scale) [2, 15]: 60
Plant response rating, Morningglory [2, 19]: 70
Plant response rating, Morningglory [2, 17]: 80
Plant response rating, Pigweed [3, 14]: 85
Pigweed plant response rating (0 to 100 scale) [3, 15]: 100
Plant response rating, Pigweed [3, 19]: 100
Plant response rating, Pigweed [3, 17]: 100
Ryegrass, Italian plant response rating (0 to 100 scale) [4, 15]: 5
Plant response rating, Ryegrass, Italian [4, 19]: 5
Plant response rating, Ryegrass, Italian [4, 17]: 60
Plant response rating, Foxtail, Giant [5, 14]: 75
Foxtail, Giant plant response rating (0 to 100 scale) [5, 15]: 80
Plant response rating, Foxtail, Giant [5, 19]: 85
Plant response rating, Foxtail, Giant [5, 17]: 95
Plant response rating, Cocklebur [6, 14]: 40
Cocklebur plant response rating (0 to 100 scale) [6, 15]: 40
Plant response rating, Cocklebur [6, 19]: 85
Plant response rating, Cocklebur [6, 17]: 98
Plant response rating, Bromegrass, Downy [7, 14]: 0
Bromegrass, Downy plant response rating (0 to 100 scale) [7, 15]: 5
Plant response rating, Bromegrass, Downy [7, 19]: 30
Plant response rating, Bromegrass, Downy [7, 17]: 35
Plant response rating, Oat, Wild [8, 14]: 5
Oat, Wild plant response rating (0 to 100 scale) [8, 15]: 5
Plant response rating, Oat, Wild [8, 19]: 10
Plant response rating, Oat, Wild [8, 17]: 40
Plant response rating, Blackgrass [9, 14]: 5
Blackgrass plant response rating (0 to 100 scale) [9, 15]: 10
Plant response rating, Blackgrass [9, 19]: 35
Plant response rating, Blackgrass [9, 17]: 40
Plant response rating, Surinam Grass [10, 19]: 75
Plant response rating, Surinam Grass [10, 17]: 90
Windgrass plant response rating (0 to 100 scale) [11, 15]: 60
Plant response rating, Windgrass [11, 19]: 70
Plant response rating, Canarygrass [12, 14]: 0
Canarygrass plant response rating (0 to 100 scale) [12, 15]: 0
Plant response rating, Canarygrass [12, 19]: 10
Plant response rating, Canarygrass [12, 17]: 15
Plant response rating, Chickweed [13, 14]: 90
Chickweed plant response rating (0 to 100 scale) [13, 15]: 95
Plant response rating, Chickweed [13, 19]: 95
Plant response rating, Chickweed [13, 17]: 100
